Measurements from US20150133434A1, “Compositions and Methods for Reactivating Latent Immunodeficiency Virus” (priority 2012, published 2015).
Entries after “also recorded” stand apart in the source; their conditions may differ.

What was measured:
[1] = system: latent HIV-1 in Bcl-2-transduced resting CD4+ T cells; assay type: cell-based; conditions: 24-72 h, average of two donors
[2] = system: HIV LTR promoter driving destabilized GFP in Jurkat cells; experiment: Single-cell time-lapse fluorescence microscopy of LTR-GFP Jurkat cells (two-state transcription model); assay type: cell-based
Procedure: Lentiviral vectors expressing the LTR-GFP cassette in the absence of Tat were used to infect 5×10^5 Jurkat cells at a multiplicity of infection <0.1, resulting in 25,000-50,000 infected cells each presumably with a unique integration site. Cells were then sorted by FACS to isolate green fluorescent protein-labeled (GFP^+) cells and fluorescently imaged on glass-bottom dishes in RPMI 1640 with 10% fetal calf serum and 1% penicillin-streptomycin and 1 μM JQ1 at t=0 h for the treated population. The imaging took place in humidified conditions at 37° C. and 5% CO2 for 12-24 hours with a 40× (1.2 NA) oil-immersion objective on a Zeiss Observer Z1 microscope equipped with an automated linear-encoded X-Y stage. Image processing and cell tracking were performed in Matlab™ with an in-house algorithm (Weinberger et al. Nature Genet 2008; 40:466-70) and a single 12-hour experiment could generate up to 1000 single-cell trajectories for analysis.
For each trajectory, noise autocorrelation (Φ(t)) and magnitude (CV2) were calculated using an established noise processing algorithm (Weinberger et al. Nature Genet 2008; 40:466-70; Austin D W et al., Nature 2006; 439:608-11) A published theory (Simpson M L, et al. J Theor Biol 2004; 229:383-94; Cox C D, et al. Proc Natl Acad Sci USA 2008; 105:10809-14) of the two-state transcriptional bursting model yields analytical expressions for the autocorrelation of the noise, Φ(τ), and noise magnitude. Derivations and calculated burst size and frequency have been reported (Singh A, et al. Biophysical Journal 2010; 98:L32-L4). Exogenous JQ1 addition can change either mean fluorescence, variability of expression (defined by the coefficient of variation, CV), or both. Modeling of 2-state transcription enables the differentiation between modulations in transcriptional initiation (Dkon) or in the burst size (DT/koff).
To biophysically characterize the Tat-independent JQ1 effect on the HIV LTR, single-cell time-lapse fluorescence microscopy was performed on ˜2,000 Jurkat cells where each cell carried a different integration site of the LTR promoter driving a destabilized GFP reporter (FIG. 24A). Mean fluorescence intensity (MFI) and the magnitude of intensity fluctuations (i.e. the ‘noise’) were quantified for sub-clusters of polyclonal cells in response to JQ1 treatment (FIG. 24). The data was analyzed using an established two-state model of episodic transcription in which the LTR switches between a transcriptional OFF state, where RNA polymerase II is stalled, and a transcriptional ON state where elongation occurs and multiple mRNA transcripts are produced at a rate=T (FIG. 24B). In this model, promoter switching occurs with rates kon and koff which generates pulses or bursts of transcription.
To determine how JQ1 influences these biophysical parameters (koff, kon, T), changes in LTR MFI and noise (measured by the coefficient of variation, CV, which is defined as the standard deviation over the mean) were examined and compared to the untreated LTR (FIG. 24C, D). By qualifying MFI and CV in time-lapse trajectories, changes in both burst frequency (kon) and burst size, or the # of mRNA produced per activity pulse, (T/koff) can be determined.

[3] = system: latent DHIV-GFP, X4 virus in nonpolarized T helper cells; experiment: Primary T-cell model of latency, ex vivo differentiated nonpolarized CD4+ T cells; assay type: cell-based, HIV-1; conditions: 96 h after compound addition; minor effect only at highest doses
[4] = system: latent LTR-Tat-IRES-GFP construct in J-Lat A2 cells; experiment: J-Lat A2 cells (LTR-Tat-IRES-GFP), flow cytometry of GFP; assay type: cell-based, HIV-1
Procedure: HEK293T and Jurkat cells were obtained from the American Type Culture Collection. J-Lat (clones A2 and A72) cell lines were described. HEK293T cells were cultured in DMEM supplemented with 10% FBS, 1% L-glutamine and 1% penicillin-streptomycin (Life Technologies). Jurkat and J-Lat cells were cultured in RPMI supplemented with 10% FBS, 1% L-glutamine, and 1% penicillin-streptomycin. TNFα (Sigma-Aldrich) was used at concentrations of 0.25 or 1 ng/ml. Human αCD3 and αCD28 (BD Biosciences) were used at concentrations of 3 and 1 μg/ml, respectively. Prostratin (Sigma) was used at a suboptimal concentration of 0.5 μM, and SAHA (NCI Chemical Carcinogen Repository, Midwest Research Institute) was used at 2.5 μM.
To determine if BET inhibition specifically activates Tat-dependent transcription, a J-Lat cell line was utilized that harbored a latent lentiviral construct expressing Tat with GFP from the HIV LTR (clone A2; LTR-Tat-IRES-GFP). […] Stimulation with JQ1 yielded up to ninefold more GFP-expressing cells than control-treated cells, and a 22-fold increase was observed when cells were co-treated with JQ1 and low doses of TNFα (FIG. 21A). […] Here, an up to 22-fold increase in GFP^+ cells resulted from JQ1 treatment alone and a 45-fold increase when TNFα was added with JQ1 (FIG. 21B). Both cell lines were also treated with prostratin and SAHA (FIG. 27).
Two latent J-Lat cell lines A2 (containing a LTR-Tat-IRES-GFP construct) or A72 (containing a LTR-GFP construct) were treated with JQ1 or (R)-JQ1 in combination with TNFα or control at the indicated concentrations for 18 h, followed by flow cytometry analysis. […] Data represent average (±SD) of three independent experiments. All treatments in (A) and (B) on the X axis are in μM.

Cc1sc2c(c1C)C(c1ccc(Cl)cc1)=N[C@@H](CC(=O)OC(C)(C)C)c1nnc(C)n1-2 [JQ1, tert-Butyl 2-((6S)-4-(4-chlorophenyl)-2,3,9-trimethyl-6H-thieno[3,2-f][1,2,4]triazolo[4,3-a][1,4]diazepin-6-yl)acetate]
reactivation of latent HIV-1 relative to costimulation with αCD3 and αCD28 antibodies [1]: ~14%
delay in transcriptional initiation ([2]; 1 μM JQ1, average): ~50 min
increase of mRNAs per pulse of transcriptional activity ([2]; 1 μM JQ1, average): ~15 mRNAs per pulse
LTR noise (coefficient of variation) ([2]; 1 μM JQ1 vs untreated): increases
average dwell time in the OFF state (1/kon) ([2]; 1 μM JQ1 vs untreated): increases
mean fluorescence intensity (MFI) ([2]; 1 μM JQ1 vs untreated): without a significant shift
transcription burst size (T/koff) ([2]; 1 μM JQ1 vs untreated): enhancement; also recorded: increases
reversal of latency (GFP) [3]: minor activatory effect
activation of HIV transcription (GFP) ([4]; 18 h): activated HIV transcription in a dose-dependent manner; also recorded: reactivated HIV-1 in a dose-dependent manner; also recorded: increased GFP expression
effect of adding SAHA to JQ1 ([4]; FIG. 27): only a very modest increase
effect of adding prostratin to JQ1 ([4]; FIG. 27): enhanced the JQ1 effect
GFP-expressing cells relative to control-treated cells ([4]; JQ1 alone): up to ninefold
increase in GFP-expressing cells ([4]; JQ1 with low doses of TNFα): 22 fold
